Consider 3 compounds from US7678818B2, “Anthranilamide and 2-amino-heteroarene-carboxamide compounds” (Hoffmann-La Roche Inc., priority 2006, dated 2010).

The test addresses T1, cholesteryl ester transfer protein (CETP) from human lipoprotein-deprived serum (LPDS) (Homo sapiens, UniProt P11597).
T1 construct: the source of CETP was human lipoprotein-deprived serum (LPDS); from tissue; host or cells: human lipoprotein-deprived serum (LPDS)
T1 sequence (P11597 18-493): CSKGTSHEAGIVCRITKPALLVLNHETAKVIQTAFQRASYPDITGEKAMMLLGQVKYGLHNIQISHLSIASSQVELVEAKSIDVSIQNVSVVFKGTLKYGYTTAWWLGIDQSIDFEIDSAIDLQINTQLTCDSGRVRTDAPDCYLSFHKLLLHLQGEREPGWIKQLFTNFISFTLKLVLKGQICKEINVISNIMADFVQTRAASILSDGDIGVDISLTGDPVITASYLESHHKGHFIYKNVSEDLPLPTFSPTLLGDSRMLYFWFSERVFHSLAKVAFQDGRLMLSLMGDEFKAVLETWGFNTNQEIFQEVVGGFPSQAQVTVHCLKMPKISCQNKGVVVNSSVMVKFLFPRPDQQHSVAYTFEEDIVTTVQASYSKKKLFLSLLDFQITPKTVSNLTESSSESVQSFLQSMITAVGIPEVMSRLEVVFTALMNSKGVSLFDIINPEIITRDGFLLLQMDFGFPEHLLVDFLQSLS
Description: CETP inhibition in the presence of plasma (SPA assay, CETP source human lipoprotein-deprived serum). Format: biochemical. Here is the method:
Activity of CETP inhibitors was determined using a buffer assay system. Partially purified CETP transferred radiolabeled cholesteryl ester from HDL donor particles to biotin-labeled LDL acceptor particles. The reaction was stopped by addition of streptavidin-coupled scintillation proximity assay (SPA) beads. These beads captured the biotinylated acceptor particles and transferred radioactivity was measured. The assay system was purchased and performed according to manufacturer's recommendations (Amersham Biosciences). Inhibitory activity of compounds was determined as percentage of positive control activity containing CETP together with donor and acceptor particles. Serial dilution of compounds was performed in order to determine the IC50 values.
Activity of the compounds was subsequently measured in the presence of plasma using the same assay as described above except that the source of CETP was human lipoprotein-deprived serum (LPDS). Inhibitory activity of compounds was determined as percentage of positive control activity containing all the assay components except compound. Serial dilution of compounds was performed in order to determine the IC50 values.
For `CNc1c(Cl)ccc(F)c1C(=O)N(CCc1cccc(C(F)(F)F)c1)Cc1ccc(C(C)(C)C)cc1` [Compound 13.254, N-(4-tert-Butyl-benzyl)-3-chloro-6-fluoro-2-methylamino-N-[2-(3-trifluoromethyl-phenyl)-ethyl]-benzamide], the IC50 stood at 0.295 µM.

As for `CCC(=O)Nc1ccc(Cl)c(Cl)c1C(=O)N(CCc1cccc(C(F)(F)F)c1)Cc1ccc(C(C)(C)C)cc1` [Compound 13.230, N-(4-tert-Butyl-benzyl)-2,3-dichloro-6-propionylamino-N-[2-(3-trifluoromethyl-phenyl)-ethyl]-benzamide], the concentration for half-maximal inhibition (IC50) came out at 5.61 µM.

`CC(C)(C)c1ccc(CN(CCc2cccc(C(F)(F)F)c2)C(=O)c2cccnc2N)cc1` [Compound 13.63, 2-Amino-N-(4-tert-butyl-benzyl)-N-[2-(3-trifluoromethyl-phenyl)-ethyl]-nicotinamide]: the half-inhibitory concentration (IC50) was 30 µM.

As usually defined, the IC50 is the point on the concentration scale where inhibition reaches its midpoint.
